26 compounds from patent US12545659B2, “IRAK degraders and uses thereof” (Kymera Therapeutics, Inc., priority 2019, dated 2026) can be followed below.

The structures appear in SMILES notation.

One test has as its target T1, IRAK4 (Homo sapiens, UniProt Q9NWZ3).
T1 construct: endogenous in cells; host or cells: OCI-LY10
T1 sequence (Q9NWZ3 1-460): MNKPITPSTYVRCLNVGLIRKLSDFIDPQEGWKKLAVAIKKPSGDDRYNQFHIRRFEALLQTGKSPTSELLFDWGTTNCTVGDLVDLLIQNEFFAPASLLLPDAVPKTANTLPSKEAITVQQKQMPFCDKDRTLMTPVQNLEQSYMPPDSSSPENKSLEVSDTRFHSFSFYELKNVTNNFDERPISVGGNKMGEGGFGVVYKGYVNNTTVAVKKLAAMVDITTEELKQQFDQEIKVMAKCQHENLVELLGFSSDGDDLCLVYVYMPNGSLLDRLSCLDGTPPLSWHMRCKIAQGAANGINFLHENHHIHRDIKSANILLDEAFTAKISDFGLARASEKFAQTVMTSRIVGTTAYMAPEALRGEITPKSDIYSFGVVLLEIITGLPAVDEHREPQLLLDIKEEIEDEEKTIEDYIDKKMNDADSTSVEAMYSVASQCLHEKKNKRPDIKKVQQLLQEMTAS
The experiment in a line: IRAK4 MSD Degradation in OCI-LY10. It counts as cell-based. The conditions noted are these: OCI-LY10 cells, 4 hrs incubation, read-out: IRAK4 degradation in OCI-LY10 at 4 hrs: DC50. As to the method: Degradation of IRAK4 in OCI-LY10 was quantitatively measured using Meso Scale Discovery technology. […] Compounds were then added to the assay plates with a final top concentration of 1 to 10 μM in a 1:3 dilution series with total of 8 doses. The assay plates were then incubated for 4 to 24 hours at 37° C. under 5% C02. […] To prepare MSD assay plates (Meso Scale Discovery Catalog number L15XA-3), the plates were coated with […] capture antibody (mouse Anti-IRAK4 antibody [2H9], ab119942) in PBS, at 40 μL/well. […] Cell lysates were then added to MSD assay plates and the plates were incubated at room temperature for 1 hour. The plates were then washed 3 times with 150 μL/well TBST buffer and 25 μL/well primary detection antibody (rabbit Anti-IRAK4 antibody [Y279], from Abcam. Catalog number ab32511, 1 μg/mL). The assay plates were then incubated at room temperature for 1 hour, washed 3 times with 150 μL/well TBST buffer and 25 μL/well secondary detection antibody, SULFO-TAG anti-rabbit antibody were added (anti rabbit antibody from Meso Scale Discovery, Catalog number R32AB-1, 1 μg/mL). The assay plates were then incubated at room temperature for 1 hour, washed 3 times with 150 μL/well TBST buffer, and 150 μL/well MSD reading buffer (Meso Scale Discovery catalog number R92TC-2) was added. The plates were then analyzed by a MSD reader (Meso Scale Discovery, Model Quick Plex SQ 120). The data was then analyzed by software Prism 7.0 from GraphPad and the dose-depended IRAK4 degradation were fit using a three-parameter logistic equation to calculate DC50.
The letter codes for IRAK4 […] include: A (<0.05 μM); B (0.05-0.1 μM); C (0.1-0.5 μM); D (0.5-1.0 μM); and E (>1.0 μM).
What is called DC50 is the midpoint of the concentration-degradation curve. For the compound `Cn1c(=O)n(C2CCC(=O)NC2=O)c2cccc([C@H]3CC[C@H](N(C)C[C@H]4CC[C@H](n5cc6cc(NC(=O)c7cccc(C(F)(F)F)n7)c(C(F)F)cc6n5)CC4)CC3)c21` (single isomer, unassigned) [I-164, N-[6-(difluoromethyl)-2-[4-[[[4-[1-(2,6-dioxo-3-piperidyl)-3-methyl-2-oxo-benzimidazol-4-yl]cyclohexyl]-methyl-amino]methyl]cyclohexyl]indazol-5-yl]-6-(trifluoromethyl)pyridine-2-carboxamide], the DC50 was < 50 nM.
On to `Cn1c(=O)n(C2CCC(=O)NC2=O)c2cccc([C@H]3CC[C@@H](N(C)C[C@H]4CC[C@H](n5cc6cc(NC(=O)c7cccc(C(F)(F)F)n7)c(C(F)F)cc6n5)CC4)CC3)c21` (single isomer, unassigned) [I-165, N-[6-(difluoromethyl)-2-[4-[[[4-[1-(2,6-dioxo-3-piperidyl)-3-methyl-2-oxo-benzimidazol-4-yl]cyclohexyl]-methyl-amino]methyl]cyclohexyl]indazol-5-yl]-6-(trifluoromethyl)pyridine-2-carboxamide], for which the DC50 is < 50 nM.
As for `Cn1c(=O)n(C2CCC(=O)NC2=O)c2cccc([C@H]3CC[C@@H](N(C)C[C@H]4CC[C@H](n5cc6cc(NC(=O)c7cccc(C(F)(F)F)n7)c(C(C)(C)O)cc6n5)CC4)CC3)c21` (single isomer, unassigned) [I-174, N-[2-[4-[[[4-[1-(2,6-dioxo-3-piperidyl)-3-methyl-2-oxo-benzimidazol-4-yl]cyclohexyl]-methyl-amino]methyl]cyclohexyl]-6-(1-hydroxy-1-methyl-ethyl)indazol-5-yl]-6-(trifluoromethyl)pyridine-2-carboxamide], the DC50 is < 50 nM.
In the case of `Cn1c(=O)n(C2CCC(=O)NC2=O)c2cccc([C@H]3CC[C@H](N(C)C[C@H]4CC[C@H](n5cc6cc(NC(=O)c7cccc(C(F)(F)F)n7)c(C(C)(C)O)cc6n5)CC4)CC3)c21` (single isomer, unassigned) [I-175, N-[2-[4-[[[4-[1-(2,6-dioxo-3-piperidyl)-3-methyl-2-oxo-benzimidazol-4-yl]cyclohexyl]-methyl-amino]methyl]cyclohexyl]-6-(1-hydroxy-1-methyl-ethyl)indazol-5-yl]-6-(trifluoromethyl)pyridine-2-carboxamide], the DC50 is < 50 nM.
For the compound `CN(C[C@H]1CC[C@H](n2ncc3cc(NC(=O)c4cccc(C(F)(F)F)n4)c(C(C)(C)O)cc32)CC1)C1CCN(Cc2cccc3c2n(C)c(=O)n3C2CCC(=O)NC2=O)CC1` (some centres unmarked) [I-34], the DC50 fell in the range of 500 to 1000 nM.
For `CN(CC1CCN(c2cccc3c2C(=O)N(C2CCC(=O)NC2=O)C3=O)CC1)C[C@H]1CC[C@H](n2cc3cc(NC(=O)c4cccc(C(F)(F)F)n4)c(C(C)(C)O)cc3n2)CC1` (some centres unmarked) [I-40], the DC50 fell in the range of 50 to 100 nM.
Same read-out and setting: to `CN(C(=O)[C@H]1CC[C@H](n2cc3cc(NC(=O)c4cccc(C(F)(F)F)n4)c(C(C)(C)O)cc3n2)CC1)C1CCN(Cc2cccc3c2n(C)c(=O)n3C2CCC(=O)NC2=O)CC1` (some centres unmarked) [I-43] belongs < 50 nM.
For `Cn1c(=O)n(C2CCC(=O)NC2=O)c2cccc(CN3CC4(CCN(C(=O)[C@H]5CC[C@H](n6cc7cc(NC(=O)c8cccc(C(F)(F)F)n8)c(C(C)(C)O)cc7n6)CC5)CC4)C3)c21` (some centres unmarked) [I-44], the DC50 was < 50 nM.
Turning to `Cn1c(=O)n(C2CCC(=O)NC2=O)c2cccc(CN3CC4(C3)CN(C(=O)[C@H]3CC[C@H](n5cc6cc(NC(=O)c7cccc(C(F)(F)F)n7)c(C(C)(C)O)cc6n5)CC3)C4)c21` (some centres unmarked) [I-45, N-[2-[4-[6-[[1-(2,6-dioxo-3-piperidyl)-3-methyl-2-oxo-benzimidazol-4-yl]methyl]-2,6-diazaspiro[3.3]heptane-2-carbonyl]cyclohexyl]-6-(1-hydroxy-1-methyl-ethyl)indazol-5-yl]-6-(trifluoromethyl)pyridine-2-carboxamide], the DC50 lay in the range of 50 to 100 nM.
Take `Cc1cccc(C(=O)Nc2cc3cn([C@H]4CC[C@H](CN(C)C5CCN(Cc6cccc7c6n(C)c(=O)n7C6CCC(=O)NC6=O)CC5)CC4)nc3cc2C(C)(C)O)n1` (some centres unmarked) [I-48]: the DC50 is < 50 nM.
Consider `Cn1c(=O)n(C2CCC(=O)NC2=O)c2cccc(CN3CC4(CN(Cc5ccc(-n6cc7cc(NC(=O)c8cccc(C(F)(F)F)n8)c(C(C)(C)O)cc7n6)cc5)C4)C3)c21` (centres unmarked) [I-49], for which the DC50 is 50 to 100 nM.
In the case of `CN(C[C@H]1CC[C@H](n2cc3cc(NC(=O)c4cnn5cccnc45)c(C(C)(C)O)cc3n2)CC1)C1CCN(Cc2cccc3c2n(C)c(=O)n3C2CCC(=O)NC2=O)CC1` (some centres unmarked) [I-50], the DC50 is < 50 nM.
As for `Cn1c(=O)n(C2CCC(=O)NC2=O)c2cccc(CN3CCOC4(CCN(Cc5ccc(-n6cc7cc(NC(=O)c8cccc(C(F)(F)F)n8)c(C(C)(C)O)cc7n6)cc5)CC4)C3)c21` (centres unmarked) [I-52], the DC50 fell in the range of 50 to 100 nM.
On the same count and under the same terms, to `Cn1c(=O)n(C2CCC(=O)NC2=O)c2cccc(CCC3CC4(CCN(C[C@H]5CC[C@H](n6cc7cc(NC(=O)c8cccc(C(F)(F)F)n8)c(C(C)(C)O)cc7n6)CC5)CC4)C3)c21` (some centres unmarked) [I-53] belongs < 50 nM; to `CN(C[C@H]1CC[C@H](n2cc3cc(NC(=O)c4ccccn4)c(C(C)(C)O)cc3n2)CC1)C1CCN(Cc2cccc3c2n(C)c(=O)n3C2CCC(=O)NC2=O)CC1` (some centres unmarked) [I-54], 50 to 100 nM.
Turning to `Cn1c(=O)n(C2CCC(=O)NC2=O)c2cccc(CCN3CC4(CCN(C[C@H]5CC[C@H](n6cc7cc(NC(=O)c8cccc(C(F)(F)F)n8)c(C(C)(C)O)cc7n6)CC5)CC4)C3)c21` (some centres unmarked) [I-55], the DC50 is < 50 nM.

The test is the same for the next values; noted with them: OCI-LY10 cells, 24 hrs incubation, read-out: IRAK4 degradation in OCI-LY10 at 24 hrs: DC50.
With `COc1cc2nn([C@H]3CC[C@H](CN4CCC5(CC4)CC(CCNc4cccc6c4C(=O)N(C4CCC(=O)NC4=O)C6=O)C5)CC3)cc2cc1NC(=O)c1cccc(C(C)(F)F)n1` (single isomer, unassigned) [I-128], the DC50 is 50 to 100 nM.
For the compound `COc1cc2nn([C@H]3CC[C@H](CN4CCC5(CC4)CC(CCNc4cccc6c4C(=O)N(C4CCC(=O)NC4=O)C6=O)C5)CC3)cc2cc1NC(=O)c1cccc(C(C)(F)F)n1` (single isomer, unassigned) [I-129], the half-maximal degradation concentration (DC50) lay within 50 to 100 nM.
Take `CN(CCCOCCCNc1cccc2c1C(=O)N(C1CCC(=O)NC1=O)C2=O)C[C@H]1CC[C@H](n2cc3cc(NC(=O)c4cccc(C(F)(F)F)n4)c(C(C)(C)O)cc3n2)CC1` (some centres unmarked) [I-31]: the DC50 lay within 50 to 100 nM.
For `CN(C[C@H]1CC[C@H](n2cc3cc(NC(=O)c4cccc(C(F)(F)F)n4)c(C(C)(C)O)cc3n2)CC1)C1CCC2(CC1)CC(CNc1cccc3c1C(=O)N(C1CCC(=O)NC1=O)C3=O)C2` (some centres unmarked) [I-32], the DC50 was < 50 nM.
For `O=C1CCC(N2C(=O)c3cccc(NCCCOCC4CCN(C[C@H]5CC[C@H](n6cc7cc(NC(=O)c8cccc(C(F)(F)F)n8)c(C(F)F)cc7n6)CC5)CC4)c3C2=O)C(=O)N1` (some centres unmarked) [I-33], the DC50 lay within 50 to 100 nM.
Consider `CC(C)(O)c1cc2nn([C@H]3CC[C@H](CN4CCC5(CC4)CC(Nc4cccc6c4C(=O)N(C4CCC(=O)NC4=O)C6=O)C5)CC3)cc2cc1NC(=O)c1cccc(C(F)(F)F)n1` (some centres unmarked) [I-35, N-[2-[4-[[2-[[2-(2,6-dioxo-3-piperidyl)-1,3-dioxo-isoindolin-4-yl]amino]-7-azaspiro [3.5]nonan-7-yl]methyl]cyclohexyl]-6-(1-hydroxy-1-methyl-ethyl)indazol-5-yl]-6-(trifluoromethyl)pyridine-2-carboxamide], for which the DC50 was < 50 nM.
On to `CN(CCCO[C@H]1C[C@H](Nc2cccc3c2C(=O)N(C2CCC(=O)NC2=O)C3=O)C1)C[C@H]1CC[C@H](n2cc3cc(NC(=O)c4cccc(C(F)(F)F)n4)c(C(C)(C)O)cc3n2)CC1` (some centres unmarked) [I-41], for which the DC50 is < 50 nM.
As for `CC(C)(O)c1cc2nn([C@H]3CC[C@H](CN4CCC5(CC4)CC(CNc4cccc6c4C(=O)N(C4CCC(=O)NC4=O)C6=O)C5)CC3)cc2cc1NC(=O)c1cccc(C(F)(F)F)n1` (some centres unmarked) [I-42], the DC50 is < 50 nM.
Same read-out and setting: to `O=C1CCC(N2C(=O)c3cccc(NCC4CC5(CCN(C[C@H]6CC[C@H](n7cc8cc(NC(=O)c9cccc(C(F)(F)F)n9)c(C(F)F)cc8n7)CC6)CC5)C4)c3C2=O)C(=O)N1` (some centres unmarked) [I-46] belongs 50 to 100 nM; to `Cc1cccc(C(=O)Nc2cc3cn([C@H]4CC[C@H](CN(C)[C@H]5CC[C@H](Nc6cccc7c6C(=O)N(C6CCC(=O)NC6=O)C7=O)CC5)CC4)nc3cc2C(C)(C)O)n1` (some centres unmarked) [I-47], < 50 nM.
